{
  "source": "patent US8664160B2",
  "about": "“Fungicidal mixtures” (BASF SE, priority 2005, dated 2014)",
  "system": "bentgrass",
  "assay": "Seed treatment of bentgrass: ground coverage by emerged plants",
  "type": "in vivo",
  "conditions": "20 g a.i./100 kg seed, greenhouse, humid conditions, 7 days after planting, untreated 10.8%",
  "text": "Seeds of bentgrass were seed-treated with the products and concentrations listed. Triticonazol and Pyraclstrobin were used as 200 g/l FS-formulation. Metalaxyl als a 17.7% LS-formulation. Treated sees were planted at the day of treatment and then kept under humid conditions in the greenhouse. 7 days after plating the ground coverage by emerged plants were estimated in percentage.",
  "data": [
    {"smiles": "COCC(=O)N(c1c(C)cccc1C)[C@H](C)C(=O)OC", "note": "[Metalaxyl-M, metalaxyl-M]", "values": [
      {"measurement": "% covered ground", "value": 36.3, "unit": "%"}
    ]}
  ]
}
